One block for each molecule: values may come before it. Starred links: 1 amine or outer side, 2 acyl side, 3 side chain; linkers in the order of their positions; H or OH if unused. Residues, ends and D or L forms follow the SMILES beside them. *: point of attachment. Doxorubicin(3'-N) = COc1cccc2c1C(=O)c1c(O)c3c(c(O)c1C2=O)C[C@@](O)(C(=O)CO)C[C@@H]3O[C@H]1C[C@H](N*)[C@H](O)[C@H](C)O1; Suc = O=C(CCC(=O)[*:2])[*:1]
Tests used:
[1] = tested on: MDA‐MB‐231 cells; test: CCK-8 cell viability assay, MDA-MB-231; assay type: cell-based, human
Procedure: (§1) MDA‐MB‐231 cells were incubated in 96‐well plates for 24 h (1 × 10^4 cells per well). […] At the appointed time, 10 µL CCK‐8 solution was dropped into each well and further co‐incubated with treated cells for 2 h. The absorbance values at 450 nm were measured by an automated plate reader (iMark (168‐1130), Biorad, USA). The IC50 values were obtained from Microsoft Excel's FORECAST formula.

[2] = tested on: MCF‐7 cells; test: CCK-8 cell viability assay, MCF-7; assay type: cell-based, human; details: MCF-7, 24 h
Procedure: as §1
breast cancer cell line MCF-7 after 24 h incubation. Data are presented as means ±
standard deviations (n = 3).
(§2) (1 picture or pasted object on this page, not shown here)

[3] = tested on: MCF‐10A cells; test: CCK-8 cell viability assay, MCF-10A; assay type: cell-based, human; details: 24 h
Procedure: as §1
mammary epithelial cell line MCF-10A after 24 h incubation. Data are presented as
means ± standard deviations (n = 3).
as §2

[4] = Morphological transformation / particle size by DLS and TEM in PBS of different pH; assay type: physicochemical; details: TEM, PBS pH 6.5
[5] = tested on: MDA‐MB‐231 metastasis model; test: Anti-metastasis evaluation, MDA-MB-231 metastasis model; assay type: in vivo, mouse; details: MDA-MB-231 metastasis model, DOX 5 mg kg^−1
Description: (§3) All the animal experimental procedures were recognized and approved by the Regional Ethics Committee for Animal Experiments at Ningbo University, China (Permit NO. SYXK (Zhe) 2019‐0005). The triple‐negative breast cancer (TNBC) xenograft tumors were established on female BALB/c nude mice (≈15 g) by subcutaneous injection of MDA‐MB‐231 cells (5 × 10^6 cells in each mouse). TNBC metastasis models were constructed by injecting MDA‐MB‐231‐luc cells (1 × 10^5 cells in each mouse) through the tail vein to female BALB/c nude mice. The day that MDA‐MB‐231‐luc was injected was set as D0. In vivo imaging system (IVIS) (Lumina XRMS Ш, PerkinElmer, USA) was utilized to identify the tumor metastasis at D12.
For the TNBC metastasis model, two kinds of treatments were developed. […] After seven times of injections, continued observation of the mice was carried out. […] In vivo imaging system (IVIS Lumina XRMS Ш, PerkinElmer, USA) was utilized again to estimate the tumor metastasis at D26. Meanwhile, the mice were sacrificed and the main organs (heart, livers, spleen, lung, and kidney) were separated for histological analysis.

[6] = tested on: healthy ICR mice; test: Maximum tolerated dose / acute toxicity study
Description: Animal survival of each group (n = 10, 5 female and 5 male) was continuously recorded for 14 days. Eventually, the evaluation and calculation of the median lethal dose (LD50) were completed with these collected data using the Bliss rule.

[7] = tested on: MDA‐MB‐231 xenograft model; test: In vivo antitumor evaluation, MDA-MB-231 xenograft; set-up: species or system mouse; details: MDA-MB-231 tumor-bearing nude mice; DOX-P18 up to 100 mg kg^−1 (20 mg kg^−1 DOX); DOX at 10 and 20 mg kg^−1
Description: as §3
When the tumor volume of BALB/c mice reached ≈70 mm^3 (V = L × W × W/2), the tumor‐bearing mice were randomly divided into seven groups (n = 5 for each group). […] 100 µL drug was injected intravenously through the tail vein every other day for a total of five times. The day that the first injection was given was set as D0. Tumor size and mouse weight were measured every 2 days from the day that treatment started until D26.

Compound: CC[C@H](C)[C@H](NC(=O)[C@@H]1CCCN1C(=O)[C@H](CC(N)=O)NC(=O)[C@H](CC(N)=O)NC(=O)[C@H](Cc1ccc(O)cc1)NC(=O)[C@H](Cc1c[nH]cn1)NC(=O)[C@H](CCCNC(=N)N)NC(=O)[C@@H](NC(=O)[C@H](CCCNC(=N)N)NC(=O)CNC(=O)CNC(=O)[C@H](CC(C)C)NC(=O)[C@@H]1CCCN1C(=O)CCC(=O)N[C@H]1C[C@H](O[C@H]2C[C@](O)(C(=O)CO)Cc3c(O)c4c(c(O)c32)C(=O)c2c(OC)cccc2C4=O)O[C@@H](C)[C@H]1O)C(C)C)C(=O)N[C@@H](Cc1c[nH]c2ccccc12)C(=O)N[C@@H](CCCNC(=N)N)C(=O)N[C@@H](CCC(N)=O)C(=O)N[C@@H](CCCNC(=N)N)C(=O)N[C@@H](Cc1ccc(O)cc1)C(N)=O [DOX‐P18R] ({Doxorubicin(3'-N)-Suc}-PLGGRVRHYNNPIWRQRY-NH2)
IC50 (cytotoxicity), in words ([1]; MDA-MB-231, 24 h): particularly high IC50 values
IC50 (cytotoxicity), in words [2]: particularly high IC50 values
IC50 (cytotoxicity), in words [3]: particularly high IC50 values

Morphology by TEM [4]: fibroid aggregations
Compound: CC[C@H](C)[C@H](NC(=O)[C@@H]1CCCN1C(=O)[C@H](CC(N)=O)NC(=O)[C@H](CC(N)=O)NC(=O)[C@H](Cc1ccc(O)cc1)NC(=O)[C@H](Cc1c[nH]cn1)NC(=O)[C@H](CCCNC(=N)N)NC(=O)CNC(=O)[C@H](CCCNC(=N)N)NC(=O)[C@@H](N)C(C)C)C(=O)N[C@@H](Cc1c[nH]c2ccccc12)C(=O)N[C@@H](CCCNC(=N)N)C(=O)N[C@@H](CCC(N)=O)C(=O)N[C@@H](CCCNC(=N)N)C(=O)N[C@@H](Cc1ccc(O)cc1)C(N)=O [P15] (H-VRGRHYNNPIWRQRY-NH2)

Compound: COc1cccc2c1C(=O)c1c(O)c3c(c(O)c1C2=O)C[C@@](O)(C(=O)CO)C[C@@H]3O[C@H]1C[C@H](NC(=O)CCC(=O)N2CCC[C@H]2C(=O)N[C@@H](CC(C)C)C(=O)NCC(=O)O)[C@H](O)[C@H](C)O1 [DOX‐P3]
IC50 with extended incubation time ([1]; MDA-MB-231, 36 and 48 h versus 24 h): further reduced

Compound: COc1cccc2c1C(=O)c1c(O)c3c(c(O)c1C2=O)C[C@@](O)(C(=O)CO)C[C@@H]3O[C@H]1C[C@H](N)[C@H](O)[C@H](C)O1 [DOX, doxorubicin, reference compound]
Survival in metastasis model [5]: no mice survived up to day 14 (D14)
Histological analysis of major organs ([6]; 14 days after single dose, 40 mg kg^−1 DOX (or DOX equivalent)): disordered arrangement of myofilaments, glomerulosclerosis, and protein casts
Blood biochemistry: ALT and ALP activity ([6]; 14 days after single injection, with increasing dose, n = 3): gradually decreased
Death / body weight in tumor-bearing mice [7]: cause death
